Data published in US8987212B2, “Oleanoyl peptide composition and method of treating skin aging” (priority 2007, dated 2015).
Converted amounts (≈) assume the structure as drawn. Where a SMILES comes first, the peptide text is derived from it. The star is where a group is joined. Palmitoyl = CCCCCCCCCCCCCCCC(=O)*

Experiments:
[1] = test system: B16F1 mouse melanoma cells; assay: Melanin inhibition in α-MSH induced melanoma cells; assay type: cell-based; conditions: α-MSH induced, 9 days; for IC50: Mus musculus, B16-F1, 216 h, read-out: Melanin inhibition IC50 (μg/ml), Individual active
Procedure: B16F1 mouse melanoma cells were seeded in a 6 well microtiter plate at a seeding density of 5000 cells per well in 2 ml DMEM medium per well. After 24 hours of incubation in a CO2 incubator, melanin production is induced by 0.1 nM ∝-MSH by replacing the medium with medium containing ∝-MSH. The cells were then treated with varying concentrations of sample (composition containing oleanoyl peptide and stilbenes/licorice extract/THC) over a period of 9 days with renewal of ∝-MSH containing medium and sample at regular intervals of 3 days. Control wells were maintained without sample treatment and only with the vehicle used for sample preparation. After the incubation period, the medium was removed and the cells were scraped and washed in PBS. Thereafter, melanin was extracted by 1N NaOH in boiling water bath for 5 minutes. The absorbance of the melanin extract was read at 405 nm in a microplate reader. The inhibitory effect of the sample is calculated based on the decrease of melanin formation.
T=absorbance due to melanin in the presence of inhibitor

Human osteosarcoma cells = assay: Collagen enhancement by Sirius Red staining; assay type: cell-based
Procedure: Collagen enhancement was determined by using Sirius Red stain that binds with a greater specificity to Collagen type I and Collagen type III of the extracellular matrix. The stain bound to the collagen is dissolved and the optical density (OD) is measured spectrophotometrically using a Fluostar optima microtiter plate reader at 544 nm. The OD of the stain bound to collagen is directly proportional to the collagen content in the cells.
Human osteosarcoma cells from human bone were used for collagen enhancement studies. The cells were seeded with a seeding density of 10000 cells per well of a 24 well plate. Confluent monolayers of cells were initially treated with varying non cytotoxic concentrations of Oleanoyl peptide and vehicle (control) in the culture medium. For each concentration, 4 replicates were maintained and the analysis was performed twice such that the ‘n’ value is 8. After sample treatment, the cells were incubated in a CO2 incubator for 48 hrs. The cells were then developed by Sirius red staining technique to analyze the collagen enhancement. The cells were washed extensively with PBS. The cells were fixed using Bouin's fluid containing 1.3% picric acid, 35% formaldehyde and glacial acetic acid in 15:5:1 ration by incubating with 1 ml of Bouin's fluid per well for 1 hr at RT. The fixative is then removed by suction with micropipette and the cells were washed under running tap water for 15 minutes. After air drying the culture plate, the cells were stained using 0.1% Sirius red stain in 1.3% picric acid. 1 ml per well Sirius red stain was added and the cells were incubated for 1 hr under mild shaking of 70 RPM at RT in Orbitek Shaker. The stain was then removed by suction and the cells were extensively washed with 0.01N HCl to remove unbound dye. The dye bound to collagen was then dissolved in 0.2 ml of 0.1N NaOH per well for 30 minutes under mild shaking of 70 RPM in Orbitek Shaker at RT. The dye was then transferred to 96 well microplate and the OD was read at 544 nm in Fluostar Optima microplate reader.
The percentage enhancement in collagen with respect to the untreated cells considering the OD of untreated cells as optimal under normal conditions is calculated as follows, % enhancement in […]=[(100/C)×T]−100 Where C=absorbance due to collagen in untreated cells
T=absorbance due to collagen in sample treated cells

[2] = DPPH free radical scavenging assay; conditions: result in words
Procedure: The DPPH assay is often used to evaluate the ability of antioxidants to scavenge free radicals which are known to be a major factor in biological damages caused by oxidative stress. This assay is known to give reliable information concerning the antioxidant ability of the tested compounds. The assay is based on the color change of the stable free radical DPPH from purple to yellow as the radical is quenched by the antioxidant.
The assay mixture tubes containing 1.5 ml of 0.1 mM DPPH methanolic solution and varying concentrations of the sample in a total volume of 3 ml were incubated at 37° C. for 30 minutes in a shaking water bath. The reduction in absorbance which is directly proportional to the radical scavenging is measured spectrophotometrically at 517 nm. […] The percentage of scavenging is calculated as follows, % scavenging=[(C−T)/C]×100 Where C=absorbance in the absence of inhibitor
T=absorbance in the presence of inhibitor

TNF α = TNF α inhibition in LPS-stimulated human whole blood (ELISA); assay type: cell-based; conditions: for TNF α inhibition (IC50 μg/ml): human whole blood, LPS 1 ng/mL
Excerpt: For TNF α inhibitory study, human whole blood is used. In whole blood assay, monocytes appear to be the main source of TNF-α on lipopolysaccharide (LPS) stimulation. Monocyte and macrophages are a major source of TNF-α in addition to other cell types like eosinophils, mast cells, peripheral lymphocytes and granulocytes. The activation of inflammatory cells is influenced by the intracellular levels of c-AMP which are regulated by the phosphodiesterase isoenzyme. […] After stimulation, the assay employs the quantitative sandwich enzyme immunoassay technique. A monoclonal antibody specific for TNF-α has been pre-coated onto a microplate. TNF-α present in the sample is bound by the immobilized antibody. After washing away any unbound substances, an enzyme-linked polyclonal antibody specific for TNF-α is added. Following a wash to remove any unbound antibody-enzyme reagent, a substrate solution is added to the wells and colour develops in proportion to the amount of TNF-α bound in the initial step. The colour development is stopped and the intensity of the colour is directly proportional to the TNF-α content.
Heparinized blood from healthy donors was diluted 1:3 in RPMI 1640 culture medium containing 10% FBS. […] 0.1% DMSO was used as vehicle for water insoluble samples. After pre-incubation, the whole blood cells were stimulated by 1 ng/mL LPS for the release of TNF α from the macrophages by incubating for 5 hr at 37° C. in an incubator with 5% COP. The samples were then centrifuged at 3000 g for 3 minutes at 4° C. and the supernatant was assayed for TNF α content by using the TNF α Elisa kit. 200 μL of supernatant from all the tubes was transferred into microtiter plate in respective wells (Pre-coated mouse monoclonal antibody microplate) followed by the addition of 50 μL of assay diluents in all the wells. After incubation for 2 hr at room temperature, the wells were washed thoroughly with wash buffer provided and then 200 μL of conjugate was added to each well. The plate was incubated for 2 hr at room temperature. After washing again, 200 μL of substrate solution was added to each well and incubated for 20 minutes at room temperature. 50 μL of Stop Solution to each well which will cause the colour change in the wells from blue to yellow was added. The optical density was read at 450 nm which is directly proportional to TNF α content and the percentage of inhibition of TNF α content on treatment with sample was calculated with respect to that of the untreated cells.
T=absorbance due to TNF α in the presence of inhibitor

LTB4 = LTB4 inhibition (same procedure as TNF α); assay type: cell-based, human; conditions: result in words
Excerpt: The above procedure is also followed for determining LTB4 inhibition by Oleanoyl peptide. From the results tabulated in table 1, it is clear that Oleanoyl peptide is a better TNF α and LTB4 inhibitor.

[3] = molecular target: Collagenase Type IV from Clostridium histolyticum; conditions: for Collagenase inhibition, % inhibition: at 500 μg/ml
[4] = molecular target: porcine pancreatic elastase (Sus scrofa, UniProt P00772); assay: EnzChek Elastase Assay, elastase inhibitory potential; conditions: for Elastase inhibition (IC50 μg/ml): porcine pancreatic elastase 0.1 U/ml, DQ Elastin, 30 minutes
Excerpt: The EnzChek kit contains DQelastin, fluorescein conjugated soluble bovine neck ligament elastin. This substrate is efficiently digested by elastase to yield highly fluorescent peptides. […] Elastase used for the assay is purified from porcine pancreas.
T=absorbance due to elastase activity in the presence of inhibitor

[5] = test system: Interleukin-1beta (IL-1β); assay: Extracellular IL-1β from LPS-challenged human neutrophils; assay type: cell-based; conditions: test sample 100 μg/ml
Procedure: (§1) Experimental observations were made in human neutrophil that were challenged with LPS. […] Rolipram at 100 μg/ml dose level was used as a standard drug to observe the authenticity and reproducibility of the experimental design.

Interleukin-6 (IL-6) = assay: Extracellular IL-6 from LPS-challenged human neutrophils; assay type: cell-based; conditions: test sample 100 μg/ml
Procedure: as §1

Prostaglandin E2 (PGE2) = assay: Extracellular PGE2 from LPS-challenged human neutrophils; assay type: cell-based; conditions: test sample 100 μg/ml
Procedure: as §1
(§2) The Oleanoyl peptide was also screened for NO and PGE2 expression.

Nitric Oxide (NO) = assay: Extracellular nitric oxide from LPS-challenged human neutrophils; assay type: cell-based; conditions: test sample 100 μg/ml
Procedure: as §1, §2

[6] = at 1.25 ppm, 48 hrs, vs untreated cells

Chain of porcine pancreatic elastase (P00772 27-266): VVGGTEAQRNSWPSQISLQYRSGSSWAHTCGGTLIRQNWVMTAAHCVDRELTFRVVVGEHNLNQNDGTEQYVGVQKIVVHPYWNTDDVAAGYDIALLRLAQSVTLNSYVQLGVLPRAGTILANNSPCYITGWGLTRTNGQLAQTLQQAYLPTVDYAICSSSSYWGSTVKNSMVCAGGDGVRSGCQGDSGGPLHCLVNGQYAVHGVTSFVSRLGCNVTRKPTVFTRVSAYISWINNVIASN

For `COc1cc(/C=C/c2ccc(O)c(O)c2)cc(OC)c1` [3Hydroxypterostilbene], the “Melanin inhibition IC50 (μg/ml), Individual active” value [1] was 0.8 ± 0.22 µg/mL.

For `CC1(C)CC[C@]2(C(=O)O)CC[C@]3(C)C(=CC[C@@H]4[C@@]5(C)CC[C@H](O)C(C)(C)[C@@H]5CC[C@]43C)[C@@H]2C1` [Oleanolic acid], the enhancement in collagen (Human osteosarcoma cells; result in words, concentration not given) was “did not show any enhancement”, the “Anti-oxidant activity by DPPH Method” value [2] was “Nil” and the inhibition at 100 µg/mL (TNF α; Homo sapiens, at 100 μg/ml) was 17%. For the same compound, the LTB4 inhibition (LTB4) was “Nil” and the “Collagenase inhibition (IC50 μg/ml)” value ([3]; Collagenase Type IV 0.2 U/ml, DQ gelatin, 30 minutes) was 129 µg/mL.

For `Oc1cc(O)cc(/C=C/c2ccc(O)cc2O)c1` [Oxyresveratrol], the IC50 [1] was 8 ± 1.2 µg/mL (≈ 32.8 µM).

In the case of `CCCCCCCCCCCCCCCC(=O)N[C@@H](CCCCN)C(=O)N[C@H](C(=O)N[C@H](C(=O)N[C@@H](CCCCN)C(=O)N[C@@H](CO)C(=O)O)[C@@H](C)O)[C@@H](C)O` [Pal-Lys-Thr-Thr-Lys-Ser, palmitoyl-lysyl-threonyl-threonyl-lysyl-serine] (Palmitoyl-KTTKS-OH), the enhancement in collagen (Human osteosarcoma cells; [6]) is reported as 11%, the “Anti-oxidant activity by DPPH Method” value [2] is reported as “Nil” and the “TNF α inhibition (IC50 μg/ml)” value (TNF α) is reported as “Nil”. The LTB4 inhibition (LTB4) was “Nil”, the “Collagenase inhibition, % inhibition” value [3] was 38% and the inhibition at 500 µg/mL ([4]; read-out: Elastase inhibition, % inhibition) was 16%.

For `C[C@@H](O)[C@H](NC(=O)[C@@H](NC(=O)[C@@H](N)CCCCN)[C@@H](C)O)C(=O)N[C@@H](CCCCN)C(=O)N[C@@H](CO)C(=O)O` [Peptide of SEQ ID No. 1, Lysyl-Threonyl-Threonyl-Lysyl-Serine] (H-KTTKS-OH), the enhancement in collagen (Human osteosarcoma cells; [6]) was 5%, the “Anti-oxidant activity by DPPH Method” value [2] was “Nil” and the “TNF α inhibition (IC50 μg/ml)” value (TNF α) was “Nil”. For the same compound, the LTB4 inhibition (LTB4) was “Nil”, the “Collagenase inhibition, % inhibition” value [3] was 24% and the “Elastase inhibition (IC50 μg/ml)” value [4] was “Nil”. For the same compound, the “Elastase inhibition (IC50 μg/ml)” value ([4]; listed as peptide of SEQ ID NO: 1) was “did not show elastase inhibition”.

Compound `COc1cc(/C=C/c2ccc(O)cc2)cc(OC)c1` [Pterostilbene] has an IC50 [1] of 0.6 ± 0.1 µg/mL (≈ 2.34 µM).

Work on `Oc1ccc(C=Cc2cc(O)cc(O)c2)cc1` [Resveratrol] yielded an IC50 [1] of 3 ± 0.2 µg/mL (≈ 13.1 µM).

With `COc1ccc(C2CNC(=O)C2)cc1OC1CCCC1` (stereo not drawn) [Rolipram, reference compound] the “Concentration of IL-1β produced (pg/ml) Mean ± S.E.” value [5] was 67.52 ± 2.07 pg/mL, the “% activity IL-1β expression against LPS control” value ([5]; ↓ = inhibition) was 51.62↓ % and the “Concentration of IL-6 produced (pg/ml) Mean ± S.E.” value (Interleukin-6 (IL-6)) was 72.65 ± 2.07 pg/mL. The “% activity IL-6 expression against LPS control” value (Interleukin-6 (IL-6); ↓ = inhibition) was 48.92↓ %, the “Concentration of PGE2 produced (pg/ml) Mean ± S.E.” value (Prostaglandin E2 (PGE2)) was 265.71 ± 10.09 pg/mL and the “% activity PGE2 expression against LPS control” value (Prostaglandin E2 (PGE2); ↓ = inhibition) was 65.44↓ %. For the same compound, the “Concentration of NO produced (μmol/ml) Mean ± S.E.” value (Nitric Oxide (NO)) was 24.83 ± 2.07 µmol/mL and the “% activity NO expression against LPS control” value (Nitric Oxide (NO); ↓ = inhibition) was 43.98↓ %.
